Calls of active or inactive are those of the source. The rule behind the calls is not given here.
Molecular target: Heat shock protein HSP 90-alpha (Homo sapiens) (UniProt P07900)
Assay: growth inhibition of yeast carrying human Hsp90, dose response, counter-screen, plate reader, cherry-picked samples (AID 540270)
Details: yeast expressing human Hsp90, growth

| SMILES | activity, negative = inhibition (at 26 µM (top of the series)) | also measured |
| --- | --- | --- |
| COc1ccc(NC(=S)Nc2ccc3snnc3c2)cc1 | inactive | – |
| CCOC(=O)c1cc([N+](=O)[O-])cc([N+](=O)[O-])c1Sc1ncnc2nc[nH]c12 | inactive | – |
| Cc1ccc(/C=C2/NC(=O)N(Cc3ccc(Br)cc3)C2=O)o1 | inactive | – |
| CCCC1CCC(c2ccc(/C(N)=N/O)cc2)CC1 (centres undefined) | inactive | – |
| O=C1C=CC(=O)N1Cc1ccccc1 | inactive | – |
| O=C1S/C(=C/c2ccc(N3CCOCC3)o2)C(=O)N1Cc1c(F)cccc1Cl | inactive | – |
| O=C(COc1ccc(Cl)cc1)NC1=NN(c2ccccc2)C(=O)C1 | inactive | – |
| O=C(/C(=C/c1ccc(Cl)cc1)c1nc2ccccc2[nH]1)c1ccccc1 | inactive | – |
| Cc1ccc(N2C(=O)C3C4C=CC(CNC(=S)Nc5ccc(F)cc5)(O4)C3C2=O)cc1 (centres undefined) | inactive | – |
| C[CH2][Hg][S]c1ccccc1C(=O)O | – | AC50: 2.31 µM |
| Cc1ccc(N=c2ssnc2Cl)cc1 | inactive | – |
| CCOc1ccc(S(=O)(=O)NCc2ccccn2)c(C)c1C | inactive | – |
| CC(=NNC(=S)N1CC2CCC(CC2)C1)c1nccs1 | inactive | – |
| CC(C)OC(=O)c1ccc(NCc2cc(O)ccc2O)cc1Cl | inactive | – |
| O=C(/C(=C\c1ccccc1)c1nc2ccccc2[nH]1)c1ccc(Cl)cc1 | – | activity, negative = inhibition (at 12 µM (top of the series)): inactive |
| CC1(C)N=C(SCC(=O)Nc2ccc(Cl)cc2Cl)C(c2ccccc2)=N1 | inactive | – |
| O=C(O)c1cccc(N/N=C/c2cc(Br)cc(Br)c2O)c1 | inactive | – |

| SMILES | activity, negative = inhibition (at 26 µM (top of the series)) | also measured |
| --- | --- | --- |
| CCN(CC)c1ccc(/C=C2/SC(=O)N(C(C)C)C2=O)o1 | – | activity, negative = inhibition (at 12 µM (top of the series)): inactive |
| O=C(O)/C=C/c1cn(-c2ccccc2)nc1-c1cc2ccccc2o1 | inactive | – |
| Cc1ccc(O)c(NC(=S)NC(=O)c2ccc(-c3ccc(Cl)cc3)o2)c1 | inactive | – |
| O=C1/C(=C\c2ccc(Cl)cc2)CCC1CNc1ccc(Cl)cc1 (centres undefined) | inactive | – |
| COc1cc(N=c2ssnc2Cl)c(OC)cc1Cl | inactive | – |
| O=C1CC(c2ccccc2)CC(O)=C1C=Nc1cccc(Cl)c1 (centres undefined) | – | AC50: 4.28 µM |
| Cc1ccc(N2C(=O)C3C4C=CC(CNC(=S)Nc5cccc(Cl)c5)(O4)C3C2=O)cc1 (centres undefined) | inactive | – |
| NC(=O)/C=C\C(=O)Nc1cccc(C(F)(F)F)c1 | inactive | – |
| COc1ccc(C(=O)Nc2cc(C(=O)c3ccccc3)c(C)oc2=O)cc1 | inactive | – |
| CN(C)c1ccc(-c2cc(O)c3ncccc3c2)cc1 | inactive | – |
| Cc1ccc(OCc2n[nH]c(=S)n2C2CCCCC2)cc1 | inactive | – |
| O=C(CSCC(=O)N1CCCCC1)Nc1nc(-c2ccc(Cl)s2)cs1 | inactive | – |
| Cc1csc(CNc2ncnc3ccc(-c4cccc(Cl)c4)cc23)c1 | inactive | – |
| Cc1ccc(-c2cc(-c3ccc(F)cc3)c(C#N)c(N)n2)o1 | inactive | – |
| CCOc1cc(S(=O)(=O)NC2CCCCCC2)ccc1F | inactive | – |
| Cc1cc(Br)c2c(c1)/C(=C/C(=O)c1cccs1)C(=O)N2 | inactive | – |
| O=C(/C(=C/c1cccc(Cl)c1)c1nc2ccccc2[nH]1)c1ccccc1 | inactive | – |
